Where no end group is shown, it is not given here.
Tested on: MRSA CCARM3089
Type: cell-based, Methicillin-resistant S. aureus
Conditions: CCARM3089, 16 h

Sequence | MIC [µM]
FFHHIKRGIVHVGKTIHRLVTG [Pis-F6K] | 16
FAHHIFRGIVHVGKTIHRLVTG [Pis-F2A] | 16

Tested on: MDRPA CCARM 2003
Type: cell-based, multidrug-resistant P. aeruginosa
Conditions: broth microdilution, 37°C, 16 h, three independent experiments in triplicate, SD 14.0%

Sequence | MIC [µM]
FFHHIKRGIVHVGKTIHRLVTG [Pis-F6K] | 4.0
FAHHIFRGIVHVGKTIHRLVTG [Pis-F2A] | 4.0

Tested on: MDREC CCARM 1238
Type: cell-based, multidrug-resistant E. coli
Conditions: broth microdilution, 37°C, 16 h, three independent experiments in triplicate, SD 14.0%

Sequence | MIC [µM]
FFHHIKRGIVHVGKTIHRLVTG [Pis-F6K] | 16
FAHHIFRGIVHVGKTIHRLVTG [Pis-F2A] | 16

Tested on: E.coli KCTC2571
Type: cell-based, Escherichia coli
Conditions: KCTC2571, 16 h

Sequence | MIC [µM]
FFHHIKRGIVHVGKTIHRLVTG [Pis-F6K] | 4.0
FAHHIFRGIVHVGKTIHRLVTG [Pis-F2A] | 2.0

Tested on: MRSA CCARM 3114
Type: cell-based, Methicillin-resistant S. aureus
Conditions: CCARM 3114, 16 h

Sequence | MIC [µM]
FFHHIKRGIVHVGKTIHRLVTG [Pis-F6K] | 16
FAHHIFRGIVHVGKTIHRLVTG [Pis-F2A] | 16

Tested on: S. aureus KCTC1916
Type: cell-based, Staphylococcus aureus
Conditions: KCTC1916, 16 h

Sequence | MIC [µM]
FFHHIKRGIVHVGKTIHRLVTG [Pis-F6K] | 4.0
FAHHIFRGIVHVGKTIHRLVTG [Pis-F2A] | 1.0

Tested on: MDRPA CCARM 2095
Type: cell-based, multidrug-resistant P. aeruginosa
Conditions: broth microdilution, 37°C, 16 h, three independent experiments in triplicate, SD 14.0%

Sequence | MIC [µM]
FFHHIKRGIVHVGKTIHRLVTG [Pis-F6K] | 4.0
FAHHIFRGIVHVGKTIHRLVTG [Pis-F2A] | 4.0

Tested on: MDRPA CCARM 2163
Type: cell-based, multidrug-resistant P. aeruginosa
Conditions: broth microdilution, 37°C, 16 h, three independent experiments in triplicate, SD 14.0%

Sequence | MIC [µM]
FFHHIKRGIVHVGKTIHRLVTG [Pis-F6K] | 4.0
FAHHIFRGIVHVGKTIHRLVTG [Pis-F2A] | 4.0

Tested on: MDREC CCARM 1229
Type: cell-based, multidrug-resistant E. coli
Conditions: broth microdilution, 37°C, 16 h, three independent experiments in triplicate, SD 14.0%

Sequence | MIC [µM]
FFHHIKRGIVHVGKTIHRLVTG [Pis-F6K] | 16
FAHHIFRGIVHVGKTIHRLVTG [Pis-F2A] | 16

Tested on: Drug-resistant bacterial strains
Conditions: average over the 18 drug-resistant bacterial strains of Table 3
Source text: Escherichia coli KCTC 1682, E. coli KCTC 2593, E. coli KCTC 2571, Salmonella typhimurium KCTC 1926, Pseudomonas aeruginosa KCTC 1637, P. aeruginosa KCTC 2004, P. aeruginosa KCTC 2513, Bacillus subtilis KCTC 3068, B. subtilis KCTC 1021, B. subtilis KCTC 1022, Staphylococcus epidermidis KCTC 1917, Staphylococcus aureus KCTC 1621, S. aureus KCTC 1916, and S. aureus KCTC 3881 were purchased from the Korean Collection for Type Cultures, Korea Research Institute of Bioscience & Biotechnology (Taejon, Korea). Methicillin-resistant S. aureus (MRSA) (CCARM 3089, CCARM 3090, CCARM 3108, CCARM 3114, and CCARM 3126), multidrug-resistant E. coli (MDREC) (CCARM 1229 and CCARM 1238), multidrug-resistant S. typhimurium (MDRST) (CCARM 8003, CCARM 8007, and CCARM 8009), multidrug-resistant Acinetobacter baumanii (MDRAB) (CCARM 12005, CCARM 12035, CCARM 12036, CCARM 12037), and multidrug-resistant P. aeruginosa (MDRPA) (CCARM 2002, CCARM 2003, CCARM 2095, and CCARM 2163) were obtained from the Culture Collection of Antibiotic-Resistant Microbes (CCARM) at Seoul Women’s University in Korea. The antimicrobial activities of the peptides against selected organisms, including three Gram-positive, three Gram-negative, and five antibiotic-resistant bacteria, were determined using a broth microdilution assay. Briefly, single colonies of bacteria and fungi were inoculated into Luria-Bertani (LB) medium and cultured overnight at 37°C. An aliquot of the culture was transferred to 10 mL of fresh LB and incubated for an additional 3–5 h at 37°C until it reached the mid-logarithmic phase. Two-fold serial dilutions of the peptides in 1% peptone were prepared. The serial dilutions (100 µL) were added to 100 µL of cells (2×10^6 colony-forming units (CFU)/mL) in 96-well microtiter plates and incubated at 37°C for 16 h. […] MIC values were calculated as the average of triplicate measurements from three independent assays.

Sequence | Average MIC [µM]
FFHHIKRGIVHVGKTIHRLVTG [Pis-F6K] | 11
FAHHIFRGIVHVGKTIHRLVTG [Pis-F2A] | 12

Tested on: MDRAB CCARM 12036
Type: cell-based, multidrug-resistant Acinetobacter baumanii
Conditions: broth microdilution, 37°C, 16 h, three independent experiments in triplicate, SD 14.0%

Sequence | MIC [µM]
FFHHIKRGIVHVGKTIHRLVTG [Pis-F6K] | 4.0
FAHHIFRGIVHVGKTIHRLVTG [Pis-F2A] | 4.0

Tested on: S. typhimurium KCTC1926
Type: cell-based, Salmonella typhimurium
Conditions: KCTC1926, 16 h

Sequence | MIC [µM]
FFHHIKRGIVHVGKTIHRLVTG [Pis-F6K] | 8.0
FAHHIFRGIVHVGKTIHRLVTG [Pis-F2A] | 16

Tested on: MDRST CCARM 8009
Type: cell-based, multidrug-resistant S. typhimurium
Conditions: broth microdilution, 37°C, 16 h, three independent experiments in triplicate, SD 14.0%

Sequence | MIC [µM]
FFHHIKRGIVHVGKTIHRLVTG [Pis-F6K] | 16
FAHHIFRGIVHVGKTIHRLVTG [Pis-F2A] | 16

Tested on: MRSA CCARM 3126
Type: cell-based, Methicillin-resistant S. aureus
Conditions: CCARM 3126, 16 h

Sequence | MIC [µM]
FFHHIKRGIVHVGKTIHRLVTG [Pis-F6K] | 16
FAHHIFRGIVHVGKTIHRLVTG [Pis-F2A] | 16

Tested on: S. aureus KCTC3881
Type: cell-based, Staphylococcus aureus
Conditions: KCTC3881, 16 h

Sequence | MIC [µM]
FFHHIKRGIVHVGKTIHRLVTG [Pis-F6K] | 4.0
FAHHIFRGIVHVGKTIHRLVTG [Pis-F2A] | 2.0

Tested on: B. subtilis KCTC1021
Type: cell-based, Bacillus subtilis
Conditions: KCTC1021, 16 h

Sequence | MIC [µM]
FFHHIKRGIVHVGKTIHRLVTG [Pis-F6K] | 4.0
FAHHIFRGIVHVGKTIHRLVTG [Pis-F2A] | 8.0

Tested on: B. subtilis KCTC3068
Type: cell-based, Bacillus subtilis
Conditions: KCTC3068, 16 h

Sequence | MIC [µM]
FFHHIKRGIVHVGKTIHRLVTG [Pis-F6K] | 4.0
FAHHIFRGIVHVGKTIHRLVTG [Pis-F2A] | 4.0

Tested on: Standard bacterial strains
Type: cell-based
Conditions: average over the 14 standard bacterial strains of Table 2

Sequence | Average MIC [µM]
FFHHIKRGIVHVGKTIHRLVTG [Pis-F6K] | 4.6
FAHHIFRGIVHVGKTIHRLVTG [Pis-F2A] | 4.6

Tested on: MDRAB CCARM 12037
Type: cell-based, multidrug-resistant Acinetobacter baumanii
Conditions: broth microdilution, 37°C, 16 h, three independent experiments in triplicate, SD 14.0%

Sequence | MIC [µM]
FFHHIKRGIVHVGKTIHRLVTG [Pis-F6K] | 4.0
FAHHIFRGIVHVGKTIHRLVTG [Pis-F2A] | 4.0

Tested on: MRSA CCARM 3108
Type: cell-based, Methicillin-resistant S. aureus
Conditions: CCARM 3108, 16 h

Sequence | MIC [µM]
FFHHIKRGIVHVGKTIHRLVTG [Pis-F6K] | 16
FAHHIFRGIVHVGKTIHRLVTG [Pis-F2A] | 16

Tested on: E. coli KCTC1682
Type: cell-based, Escherichia coli
Conditions: KCTC1682, 16 h

Sequence | MIC [µM]
FFHHIKRGIVHVGKTIHRLVTG [Pis-F6K] | 4.0
FAHHIFRGIVHVGKTIHRLVTG [Pis-F2A] | 2.0

Tested on: B. subtilis KCTC1022
Type: cell-based, Bacillus subtilis
Conditions: KCTC1022, 16 h

Sequence | MIC [µM]
FFHHIKRGIVHVGKTIHRLVTG [Pis-F6K] | 1.0
FAHHIFRGIVHVGKTIHRLVTG [Pis-F2A] | 1.0

Tested on: E. coli KCTC2593
Type: cell-based, Escherichia coli
Conditions: KCTC2593, 16 h

Sequence | MIC [µM]
FFHHIKRGIVHVGKTIHRLVTG [Pis-F6K] | 2.0
FAHHIFRGIVHVGKTIHRLVTG [Pis-F2A] | 2.0

Tested on: S. epidermidis KCTC1917
Type: cell-based, Staphylococcus epidermidis
Conditions: KCTC1917, 16 h

Sequence | MIC [µM]
FFHHIKRGIVHVGKTIHRLVTG [Pis-F6K] | 2.0
FAHHIFRGIVHVGKTIHRLVTG [Pis-F2A] | 2.0

Tested on: MDRAB CCARM 12005
Type: cell-based, multidrug-resistant Acinetobacter baumanii
Conditions: broth microdilution, 37°C, 16 h, three independent experiments in triplicate, SD 14.0%

Sequence | MIC [µM]
FFHHIKRGIVHVGKTIHRLVTG [Pis-F6K] | 4.0
FAHHIFRGIVHVGKTIHRLVTG [Pis-F2A] | 4.0

Tested on: MRSA CCARM 3090
Type: cell-based, Methicillin-resistant S. aureus
Conditions: CCARM 3090, 16 h

Sequence | MIC [µM]
FFHHIKRGIVHVGKTIHRLVTG [Pis-F6K] | 16
FAHHIFRGIVHVGKTIHRLVTG [Pis-F2A] | 16

Tested on: P. aeruginosa KCTC2513
Type: cell-based, Pseudomonas aeruginosa
Conditions: KCTC2513, 16 h

Sequence | MIC [µM]
FFHHIKRGIVHVGKTIHRLVTG [Pis-F6K] | 8.0
FAHHIFRGIVHVGKTIHRLVTG [Pis-F2A] | 8.0

Tested on: S. aureus KCTC1621
Type: cell-based, Staphylococcus aureus
Conditions: KCTC1621, 16 h

Sequence | MIC [µM]
FFHHIKRGIVHVGKTIHRLVTG [Pis-F6K] | 4.0
FAHHIFRGIVHVGKTIHRLVTG [Pis-F2A] | 4.0

Tested on: P. aeruginosa KCTC2004
Type: cell-based, Pseudomonas aeruginosa
Conditions: KCTC2004, 16 h

Sequence | MIC [µM]
FFHHIKRGIVHVGKTIHRLVTG [Pis-F6K] | 8.0
FAHHIFRGIVHVGKTIHRLVTG [Pis-F2A] | 8.0

Tested on: MDRST CCARM 8007
Type: cell-based, multidrug-resistant S. typhimurium
Conditions: broth microdilution, 37°C, 16 h, three independent experiments in triplicate, SD 14.0%

Sequence | MIC [µM]
FFHHIKRGIVHVGKTIHRLVTG [Pis-F6K] | 16
FAHHIFRGIVHVGKTIHRLVTG [Pis-F2A] | 16

Tested on: P. aeruginosa KCTC1637
Type: cell-based, Pseudomonas aeruginosa
Conditions: KCTC1637, 16 h

Sequence | MIC [µM]
FFHHIKRGIVHVGKTIHRLVTG [Pis-F6K] | 8.0
FAHHIFRGIVHVGKTIHRLVTG [Pis-F2A] | 4.0

Tested on: MDRPA CCARM 2002
Type: cell-based, multidrug-resistant P. aeruginosa
Conditions: broth microdilution, 37°C, 16 h, three independent experiments in triplicate, SD 14.0%

Sequence | MIC [µM]
FFHHIKRGIVHVGKTIHRLVTG [Pis-F6K] | 4.0
FAHHIFRGIVHVGKTIHRLVTG [Pis-F2A] | 4.0

Tested on: MDRAB CCARM 12035
Type: cell-based, multidrug-resistant Acinetobacter baumanii
Conditions: broth microdilution, 37°C, 16 h, three independent experiments in triplicate, SD 14.0%

Sequence | MIC [µM]
FFHHIKRGIVHVGKTIHRLVTG [Pis-F6K] | 4.0
FAHHIFRGIVHVGKTIHRLVTG [Pis-F2A] | 4.0

Tested on: MDRST CCARM 8003
Type: cell-based, multidrug-resistant S. typhimurium
Conditions: broth microdilution, 37°C, 16 h, three independent experiments in triplicate, SD 14.0%

Sequence | MIC [µM]
FFHHIKRGIVHVGKTIHRLVTG [Pis-F6K] | 16
FAHHIFRGIVHVGKTIHRLVTG [Pis-F2A] | 32

Source: PMC4256409, “Role of Phenylalanine and Valine^10 Residues in the Antimicrobial Activity and Cytotoxicity of Piscidin-1” (PLoS ONE, 2014)
